Results reported in ChEMBL document CHEMBL1208752, “Selective delivery of 2-hydroxy APA to Trypanosoma brucei using the melamine motif” (Bioorg Med Chem Lett, 2010).

Tests used:
[1] = tested on: Trypanosoma brucei brucei; experiment: Antitrypanosomal activity against tbAT1 deficient Trypanosoma brucei brucei at 100 uM after 2 days by alamar blue assay; assay type: functional, organism-based
[2] = tested on: Trypanosoma brucei brucei; experiment: Antitrypanosomal activity against wild type Trypanosoma brucei brucei expressing P2 transporter at 100 uM after 2 days by alamar blue assay; assay type: functional, organism-based

Compound | EC50 [1] | EC50 [2]
CC(Nc1nc(N)nc(N)n1)C(=O)OC(CN)CON.Cl.Cl (centres undefined) | Not Active | 
Cl.Cl.NCC(O)CON (centres undefined) |  | Not Active
Cl.Cl.NCC(CON)OC(=O)CCNc1nc(N)nc(N)n1 (centres undefined) | Not Active | 
Cl.Cl.NCC(CON)OC(=O)CNc1nc(N)nc(N)n1 (centres undefined) | Not Active | 
